Experimental data as given in patent US7935694B2, “Lactam compounds useful as protein kinase inhibitors” (Millennium Pharmaceuticals, Inc., priority 2004, dated 2011).

What follows are compounds tested against T1, recombinant murine Aurora A enzyme (Mus musculus, UniProt P97477) (assay: Aurora A DELFIA Kinase Assay). Conditions: 1 mM ATP, 20 nM enzyme, 10 minutes at room temperature.
T1 construct: hexahistidine (His6) (N); made in house; host or cells: insect cells (baculovirus, Bac-to-Bac)
T1 sequence (P97477 1-395): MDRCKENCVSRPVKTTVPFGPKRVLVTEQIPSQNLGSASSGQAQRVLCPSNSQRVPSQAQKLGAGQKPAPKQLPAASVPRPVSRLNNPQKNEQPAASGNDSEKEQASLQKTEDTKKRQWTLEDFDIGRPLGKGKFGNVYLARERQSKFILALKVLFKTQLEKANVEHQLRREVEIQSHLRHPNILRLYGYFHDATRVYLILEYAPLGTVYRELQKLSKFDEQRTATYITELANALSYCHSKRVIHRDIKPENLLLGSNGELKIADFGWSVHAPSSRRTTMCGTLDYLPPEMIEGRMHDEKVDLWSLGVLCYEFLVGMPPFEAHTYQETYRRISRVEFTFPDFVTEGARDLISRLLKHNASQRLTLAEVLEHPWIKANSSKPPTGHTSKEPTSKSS
Assay type: biochemical
Protocol: Recombinant mouse Aurora A with an amino-terminus hexahistidine tag (His-Aurora A) was expressed using a standard baculovirus vector and insect cell expression system (Bac-to-Bac®, Invitrogen). Soluble, recombinant mouse Aurora A was purified from insect cells using Ni-NTA agarose (Qiagen) as described by the manufacturer and further purified over an S75 size exclusion column (Amersham Pharmacia Biotech). The mouse Aurora A enzymatic reaction totaled 25 μL and contained 25 mM Tris-HCl (pH 8.5), 2.5 mM MgCl2, 0.05% Surfact-AMPS-20, 5 mM Sodium Fluoride, 5 mM DTT, 1 mM ATP, 3 μM peptide substrate (Biotin-β-[…]), and 20 nM recombinant murine Aurora A enzyme. The enzymatic reaction mixture, with and without Aurora inhibitors, was incubated for 10 minutes at room temperature before termination with 100 μL of stop buffer (1% BSA, 0.05% Surfact-AMPS-20, and 100 mM EDTA). A total of 100 μL of the enzyme reaction mixture was transferred to wells of a Neutravidin-coated 96-well plate (Pierce) and incubated at room temperature for 30 minutes. The wells were washed with wash buffer (25 mM Tris, 150 mM sodium chloride, and 0.1% Tween 20) and incubated for 1 hour with 100 μL of antibody reaction mixture containing 1% BSA, 0.05% Surfact-AMPS-20, anti-phospho-PKA rabbit polyclonal antibody (1:2000, New England Biolabs), and europium labeled anti-rabbit IgG (1:2000, Perkin Elmer). The wells were washed and then the bound europium was liberated using 100 μL of Enhancement Solution (Perkin Elmer). Quantification of europium was done using a WallacTM EnVision (Perkin Elmer).

IC50, ≤ 5000 nM:
COc1ccc(Nc2ncc3c(n2)-c2cc(Br)ccc2NC(=O)C3)cc1OC [Compound I-18, 10-Bromo-2-(3,4-dimethoxy-phenylamino)-5H,7H-benzo[b]pyrimido[4,5-d]azepin-6-one]

IC50, ≤ 500 nM:
COc1ccc(Nc2ncc3c(n2)-c2ccc(C(=O)NCCCCN)cc2NC(=O)C3)cc1OC [Compound I-73, 2-(3,4-Dimethoxy-phenylamino)-6-oxo-6,7-dihydro-5H-benzo[b]pyrimido[4,5-d]azepine-9-carboxylic acid (4-amino-butyl)-amide]
O=C1Cc2cnc(Nc3ccc(CCCN4CCCC4)cc3)nc2-c2ccc(Cl)cc2N1 [Compound I-66, 9-Chloro-2-[4-(3-pyrrolidin-1-yl-propyl)-phenylamino]-5H,7H-benzo[b]pyrimido[4,5-d]-azepin-6-one]
NCC#Cc1cccc(Nc2ncc3c(n2)-c2ccc(Cl)cc2NC(=O)C3)c1 [Compound I-67, 2-[3-(3-Amino-prop-1-ynyl)-phenylamino]-9-chloro-5H,7H-benzo[b]pyrimido[4,5-d]azepin-6-one]
COc1ccc(Nc2ncc3c(n2)-c2ccccc2NC(=O)C3)cc1OC [Compound I-27, 2-(3,4-Dimethoxy-phenylamino)-5H,7H-benzo[b]pyrimido[4,5-d]azepin-6-one]
COc1ccc(Nc2ncc3c(n2)-c2ccc(C(N)=O)cc2NC(=O)C3)cc1OC [Compound I-70, 2-(3,4-dimethoxy-phenylamino)-6-oxo-6,7-dihydro-5H-benzo[b]pyrimido[4,5-d]azepine-9-carboxylic acid amide]
COc1ccc(Nc2ncc3c(n2)-c2ccc(C(=O)NCCN)cc2NC(=O)C3)cc1OC [Compound I-71, 2-(3,4-Dimethoxy-phenylamino)-6-oxo-6,7-dihydro-5H-benzo[b]pyrimido[4,5-d]azepine-9-carboxylic acid (2-amino-ethyl)-amide]
NCCCCNC(=O)c1cccc(Nc2ncc3c(n2)-c2ccc(Cl)cc2NC(=O)C3)c1 [Compound I-64, N-(4-Amino-butyl)-3-(9-chloro-6-oxo-6,7-dihydro-5H-benzo[b]pyrimido[4,5-d]azepin-2-ylamino)-benzamide]
COc1ccc(Nc2ncc3c(n2)-c2ccc(C(=O)O)cc2NC(=O)C3)cc1OC [Compound I-53, 2-(3,4-dimethoxy-phenylamino)-6-oxo-6,7-dihydro-5H-benzo[b]pyrimido[4,5-d]azepine-9-carboxylic acid]
COc1ccc(Nc2ncc3c(n2)-c2ccc(CCCN)cc2NC(=O)C3)cc1OC [Compound I-50, 9-(3-Amino-propyl)-2-(3,4-dimethoxy-phenylamino)-5H,7H-benzo[b]pyrimido[4,5-d]azepin-6-one]
COc1ccc(Nc2ncc3c(n2)-c2ccc(Cl)cc2NC(=O)C3)cc1OC [Compound I-2, 9-Chloro-2-(3,4-dimethoxy-phenylamino)-5H,7H-benzo[b]pyrimido[4,5-d]azepin-6-one]
CNCCCc1ccc2c(c1)NC(=O)Cc1cnc(Nc3ccc(OC)c(OC)c3)nc1-2 [Compound I-87, 2-(3,4-Dimethoxy-phenylamino)-9-(3-methylamino-propyl)-5H,7H-benzo[b]pyrimido[4,5-d]azepin-6-one]
COc1ccc(Nc2ncc3c(n2)-c2ccc(CCCN(C)C)cc2NC(=O)C3)cc1OC [Compound I-88, 2-(3,4-Dimethoxy-phenylamino)-9-(3-dimethylamino-propyl)-5H,7H-benzo[b]pyrimido[4,5-d]azepin-6-one]
CCCc1ccc2c(c1)NC(=O)Cc1cnc(Nc3ccc(OC)c(OC)c3)nc1-2 [Compound I-82, 2-(3,4-Dimethoxy-phenylamino)-9-propyl-5H,7H-benzo[b]pyrimido[4,5-d]azepin-6-one]
COc1ccc(Nc2ncc3c(n2)-c2ccc(C#CCN4CCCC4)cc2NC(=O)C3)cc1OC [Compound I-32, 2-(3,4-Dimethoxy-phenylamino)-9-(3-pyrrolidin-1-yl-prop-1-ynyl)-5H,7H benzo[b]pyrimido[4,5-d]azepin-6-one]
O=C(O)c1ccc(Nc2ncc3c(n2)-c2ccc(Cl)cc2N(c2ccccc2)C(=O)C3)cc1 [Compound I-10, 4-(9-Chloro-6-oxo-7-phenyl-6,7-dihydro-5H-benzo[b]pyrimido[4,5-d]azepin-2-ylamino)-benzoic acid]
COc1ccc(Nc2ncc3c(n2)-c2ccc(C#CCN(C)C)cc2NC(=O)C3)cc1OC [Compound I-91, 2-(3,4-Dimethoxy-phenylamino)-9-(3-dimethylamino-prop-1-ynyl)-5H,7H-benzo[b]pyrimido[4,5-d]azepin-6-one]
O=C1Cc2cnc(Nc3cccc(C#CCN4CCCC4)c3)nc2-c2ccc(Cl)cc2N1 [Compound I-89, 9-Chloro-2-[3-(3-pyrrolidin-1-yl-prop-1-ynyl)-phenylamino]-5H,7H-benzo[b]-pyrimido[4,5-d]azepin-6-one]
COc1ccc(Nc2ncc3c(n2)-c2ccc(C)cc2NC(=O)C3)cc1OC [Compound I-42, 2-(3,4-Dimethoxy-phenylamino)-9-methyl-5H,7H-benzo[b]pyrimido[4,5-d]azepin-6-one]
COc1ccc(Nc2ncc3c(n2)-c2ccc(C#CCN)cc2NC(=O)C3)cc1OC [Compound I-38, 9-(3-Amino-prop-1-ynyl)-2-(3,4-dimethoxy-phenylamino)-5H,7H-benzo[b]pyrimido[4,5-d]azepin-6-one]
C#Cc1ccc2c(c1)NC(=O)Cc1cnc(Nc3ccc(OC)c(OC)c3)nc1-2 [Compound I-33, 2-(3,4-dimethoxy-phenylamino)-9-ethynyl-5H,7H-benzo[b]pyrimido[4,5-d]azepin-6-one]
Cc1ccc2c(c1)NC(=O)Cc1cnc(Nc3ccc(C(=O)O)cc3)nc1-2 [Compound I-9, 4-(9-Methyl-6-oxo-6,7-dihydro-5H-benzo[b]pyrimido[4,5-d]azepin-2-ylamino)-benzoic acid]
CCc1ccc2c(c1)NC(=O)Cc1cnc(Nc3ccc(OC)c(OC)c3)nc1-2 [Compound I-37, 2-(3,4-Dimethoxy-phenylamino)-9-ethyl-5H,7H-benzo[b]pyrimido[4,5-d]azepin-6-one]
O=C1Cc2cnc(Nc3ccc(C#CCN4CCCC4)cc3)nc2-c2ccc(Cl)cc2N1 [Compound I-47, 9-Chloro-2-[4-(3-pyrrolidin-1-yl-prop-1-ynyl)-phenylamino]-5H,7H-benzo[b]-pyrimido[4,5-d]azepin-6-one]
CN1C(=O)Cc2cnc(Nc3ccc(C(=O)O)cc3)nc2-c2ccc(Cl)cc21 [Compound I-7, 4-(9-Chloro-7-methyl-6-oxo-6,7-dihydro-5H-benzo[b]pyrimido[4,5-d]azepin-2-ylamino)-benzoic acid]
COc1ccc(Nc2ncc3c(n2)-c2ccc(C(=O)NCCCN)cc2NC(=O)C3)cc1OC [Compound I-72, 2-(3,4-Dimethoxy-phenylamino)-6-oxo-6,7-dihydro-5H-benzo[b]pyrimido[4,5-d]azepine-9-carboxylic acid (3-amino-propyl)-amide]
COc1ccc(Nc2ncc3c(n2)-c2ccc(CCCN4CCCC4)cc2NC(=O)C3)cc1OC [Compound I-49, 2-(3,4-Dimethoxy-phenylamino)-9-(3-pyrrolidin-1-yl-propyl)-5H,7H-benzo[b]-pyrimido[4,5-d]azepin-6-one]
COc1ccc(Nc2ncc3c(n2)-c2ccc(I)cc2NC(=O)C3)cc1OC [Compound I-30, 2-(3,4-dimethoxy-phenylamino)-9-iodo-5H,7H-benzo[b]pyrimido[4,5-d]azepin-6-one]
NCCc1cccc(Nc2ncc3c(n2)-c2ccc(Cl)cc2NC(=O)C3)c1 [Compound I-86, 2-[3-(2-Amino-ethyl)-phenylamino]-9-chloro-5H,7H-benzo[b]pyrimido[4,5-d]azepin-6-one]
NCCNC(=O)c1cccc(Nc2ncc3c(n2)-c2ccc(Cl)cc2NC(=O)C3)c1 [Compound I-62, N-(2-Amino-ethyl)-3-(9-chloro-6-oxo-6,7-dihydro-5H-benzo[b]pyrimido[4,5-d]azepin-2-ylamino)-benzamide]
